This assay deals with T1, Human orexin receptor type 2 (Homo sapiens, UniProt O43614).
T1 sequence (O43614 1-444): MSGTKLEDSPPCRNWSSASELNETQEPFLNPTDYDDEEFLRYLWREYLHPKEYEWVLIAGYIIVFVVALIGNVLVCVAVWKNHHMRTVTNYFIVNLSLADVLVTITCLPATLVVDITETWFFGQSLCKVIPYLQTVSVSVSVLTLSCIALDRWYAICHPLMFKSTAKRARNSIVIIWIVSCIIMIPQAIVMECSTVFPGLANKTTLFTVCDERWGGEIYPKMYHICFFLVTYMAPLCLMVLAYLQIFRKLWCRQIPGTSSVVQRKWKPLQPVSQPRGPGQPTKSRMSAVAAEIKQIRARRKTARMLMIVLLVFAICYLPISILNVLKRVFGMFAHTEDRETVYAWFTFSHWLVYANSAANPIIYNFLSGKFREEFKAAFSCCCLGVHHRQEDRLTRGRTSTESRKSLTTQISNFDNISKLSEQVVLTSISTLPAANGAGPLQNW
Kind of assay: Test Example 1: agonist activity for orexin receptor type 2 (aequorin luminescence, intracellular calcium mobilization). Particulars: compound 10 μm; CHO cells transiently expressing human orexin receptor type 2 and apoaequorin; relative percentage of luminescence for the luminescence (100%) of Orexin A (100 μM). Background: Calcium flux is commonly read through the fluorescence of an indicator in the cells.
As to `CC(C)N1CCN(c2cccc(F)c2NC(=O)N2C3CCC2CC(c2nc(C4CC4)no2)C3)CC1` (centres unmarked) [Example 32, 3-(3-cyclopropyl-1,2,4-oxadiazol-5-yl)-N-{2-fluoro-6-[4-(propan-2-yl)piperazin-1-yl]phenyl}-8-azabicyclo[3.2.1]octane-8-carboxamide], the “Agonist Activity (%)” value came out at 30%. As to `Cc1ccc(C2CCN(C(=O)Nc3c(F)cccc3OC3CCN(C(C)C)CC3)CC2)cc1` [Example 62, N-(2-fluoro-6-{[1-(propan-2-yl)piperidin-4-yl]oxy}phenyl)-4-(4-methylphenyl)piperidine-1-carboxamide], the “Agonist Activity (%)” value is recorded as 75%.

Turning to `Cc1ccc(C2(C)CCN(C(=O)Nc3c(Cl)cccc3C3CCN(C(C)C)CC3)CC2)cc1` [Example 148, N-{2-chloro-6-[1-(propan-2-yl)piperidin-4-yl]phenyl}-4-methyl-4-(4-methylphenyl)piperidine-1-carboxamide], the “Agonist Activity (%)” value was 176%. Next, `CC(C)N1CCN(c2cccc(F)c2NC(=O)N2CCC(C)(c3noc(C4CCCC4)n3)CC2)CC1` [Example 73, 4-(5-cyclopentyl-1,2,4-oxadiazol-3-yl)-N-{2-fluoro-6-[4-(propan-2-yl)piperazin-1-yl]phenyl}-4-methylpiperidine-1-carboxamide]: 141%; `Cc1ccc(C2CCN(C(=O)Nc3c(C(=O)N(C)C)cccc3N3CCN(C(C)C)CC3)CC2)cc1` [Example 33, N-{2-(dimethylcarbamoyl)-6-[4-(propan-2-yl)piperazin-1-yl]phenyl}-4-(4-methylphenyl)piperidine-1-carboxamide]: 150%. The value for `CC(C)N1CCN(c2cccc(Cl)c2NC(=O)N2CCC(C)(c3noc(C4CCCC4)n3)CC2)CC1` [Example 74, N-{2-chloro-6-[4-(propan-2-yl)piperazin-1-yl]phenyl}-4-(5-cyclopentyl-1,2,4-oxadiazol-3-yl)-4-methylpiperidine-1-carboxamide] was 145%; that for `CC(C)N1CCN(c2cccc(F)c2NC(=O)N2CCC(Oc3ccccc3)CC2)CC1` [Example 27, N-{2-fluoro-6-[4-(propan-2-yl)piperazin-1-yl]phenyl}-4-phenoxypiperidine-1-carboxamide] was 129%; that for `Cc1ccc(C2CCN(C(=O)Nc3c(F)cccc3-c3cnn(C4CC4)c3)CC2)cc1` [Example 58, N-[2-(1-cyclopropyl-1H-pyrazol-4-yl)-6-fluoro-phenyl]-4-(4-methylphenyl)piperidine-1-carboxamide] was 71%.

Regarding `Cc1ccc(C2CCN(C(=O)Nc3c(F)cccc3C3=CCN(C(C)CF)CC3)CC2)cc1` (centres unmarked) [Example 134, N-{2-fluoro-6-[1-(1-fluoropropan-2-yl)-1,2,3,6-tetrahydropyridin-4-yl]phenyl}-4-(4-methylphenyl)piperidine-1-carboxamide], the “Agonist Activity (%)” value was 135%. Next, `Cc1ccc(C2CCN(C(=O)Nc3c(F)cccc3C3=CCN(C(C)C)CC3)CC2)cc1` [Example 42, N-{2-fluoro-6-[1-(propan-2-yl)-1,2,3,6-tetrahydropyridin-4-yl]phenyl}-4-(4-methylphenyl)piperidine-1-carboxamide]: 128%.

Regarding `Cc1ccc(C2CCN(C(=O)Nc3ccccc3N3CCN(C(C)C)CC3)CC2)c(F)c1` [Example 18, 4-(2-fluoro-4-methylphenyl)-N-{2-[4-(propan-2-yl)piperazin-1-yl]phenyl}piperidine-1-carboxamide], the “Agonist Activity (%)” value is recorded as 128%. The value for `Cc1noc(C2(F)CCN(C(=O)Nc3ccccc3N3CCN(C(C)C)CC3)CC2)n1` [Example 164, 4-fluoro-4-(3-methl-1,2,4-oxadiazol-5-yl)-N-{2-[4-(propan-2-yl)piperazin-1-yl]phenyl}piperidine-1-carboxamide] was 128%. Next, `Cc1ccc(C2CCN(C(=O)Nc3ccccc3C3CCN(C(C)C)CC3)CC2)cc1.Cl` [Example 31, 4-(4-methylphenyl)-N-{2-[1-(propan-2-yl)piperidin-4-yl]phenyl}piperidine-1-carboxamide hydrochloride]: 164%.

On to `CC(C)N1CCN(c2cccc(F)c2NC(=O)N2CCC(C)(c3noc(C(F)(F)F)n3)CC2)CC1` [Example 24, N-{2-fluoro-6-[4-(propan-2-yl)piperazin-1-yl]phenyl}-4-methyl-4-[5-(trifluoromethyl)-1,2,4-oxadiazol-3-yl]piperidine-1-carboxamide], for which the “Agonist Activity (%)” value is on record as 127%. The value for `CC(C)N1CCN(c2cccc(Cl)c2NC(=O)N2CCC(C)(c3noc(CC(F)(F)F)n3)CC2)CC1` [Example 119, N-{2-chloro-6-[4-(propan-2-yl)piperazin-1-yl]phenyl}-4-methyl-4-[5-(2,2,2-trifluoroethyl)-1,2,4-oxadiazol-3-yl]piperidine-1-carboxamide] was 154%. The value for `COC(=O)c1cccc(N2CCN(C(C)C)CC2)c1NC(=O)N1CCC(c2ccc(C)cc2)CC1` [Example 38, methyl 2-{[4-(4-methylphenyl)piperidine-1-carbonyl]amino}-3-[4-(propan-2-yl)piperazin-1-yl]benzoate] was 119%; that for `Cc1ccc(C2(C)CCN(C(=O)Nc3c(Cl)cccc3C3=CCN(C(C)C)CC3)CC2)cc1` [Example 147, N-{2-chloro-6-[1-(propan-2-yl)-1,2,3,6-tetrahydropyridin-4-yl]phenyl}-4-methyl-4-(4-methylphenyl)piperidine-1-carboxamide] was 167%; that for `CC(C)N1CCN(c2cccc(Cl)c2NC(=O)N2CCC(C)(c3noc(C4CC4(C)C)n3)CC2)CC1` (centres unmarked) [Example 106, N-{2-chloro-6-[4-(propan-2-yl)piperazin-1-yl]phenyl}-4-[5-(2,2-dimethylcyclopropyl)-1,2,4-oxadiazol-3-yl]-4-methylpiperidine-1-carboxamide] was 185%. Next, `CC(C)N1CCN(c2ccccc2NC(=O)N2CCC(C)(c3ccccc3)CC2)CC1` [Example 5, 4-methyl-4-phenyl-N-{2-[4-(propan-2-yl)piperazin-1-yl]phenyl}piperidine-1-carboxamide]: 156%; `Cc1ccc(C2CCN(C(=O)Nc3ccccc3N3CCN(C(C)C)C(C)C3)CC2)cc1` (racemic) [Example 28, Rac-4-(4-methylphenyl)-N-{2-[3-methyl-4-(propan-2-yl)piperazin-1-yl]phenyl}piperidine-1-carboxamide]: 104%. For the compound `CCN1CCN(c2ccccc2NC(=O)N2CCC(C)(c3ccccc3)CC2)CC1.Cl` [Example 4, N-[2-(4-ethylpiperazin-1-yl)phenyl]-4-methyl-4-phenylpiperidine-1-carboxamide hydrochloride], the “Agonist Activity (%)” value came to 125%. Consider `CC(C)N1CCN(c2cccc(Cl)c2NC(=O)N2CCC(C)(c3noc(C(F)(F)F)n3)CC2)CC1` [Example 86, N-{2-chloro-6-[4-(propan-2-yl)piperazin-1-yl]phenyl}-4-methyl-4-[5-(trifluoromethyl)-1,2,4-oxadiazol-3-yl]piperidine-1-carboxamide], for which the “Agonist Activity (%)” value turned out to be 138%. Next, `CC(C)N1CC=C(c2cccc(Cl)c2NC(=O)N2CCC(C)(C#N)CC2)CC1` [Example 158, N-{2-chloro-6-[1-(propan-2-yl)-1,2,3,6-tetrahydropyridin-4-yl]phenyl}-4-cyano-4-methylpiperidine-1-carboxamide]: 133%; `CC(C)N1CCN(c2cccc(F)c2NC(=O)N2CCC(C)(c3noc(C4(C)CC4)n3)CC2)CC1` [Example 79, N-{2-fluoro-6-[4-(propan-2-yl)piperazin-1-yl]phenyl}-4-methyl-4-[5-(1-methylcyclopropyl)-1,2,4-oxadiazol-3-yl]piperidine-1-carboxamide]: 156%.

As for `CC(CF)N1CC=C(c2cccc(Cl)c2NC(=O)N2CCC(C)(c3noc(C4CC4)n3)CC2)CC1` (centres unmarked) [Example 142, N-{2-chloro-6-[1-(1-fluoropropan-2-yl)-1,2,3,6-tetrahydropyridin-4-yl]phenyl}-4-(5-cyclopropyl-1,2,4-oxadiazol-3-yl)-4-methylpiperidine-1-carboxamide], the “Agonist Activity (%)” value stood at 130%.

Turning to `Cc1ccc(C2CCN(C(=O)Nc3ccccc3N3CCN(C)CC3)CC2)cc1` [Example 123, 4-(4-methylphenyl)-N-[2-(4-methylpiperazin-1-yl)phenyl]piperidine-1-carboxamide], the “Agonist Activity (%)” value is listed as 105%.

In the case of `Cc1ccc(C23CCN(C(=O)Nc4ccccc4N4CCN(C(C)C)CC4)CC2C3)cc1` (centres unmarked) [Example 14, 6-(4-methylphenyl)-N-{2-[4-(propan-2-yl)piperazin-1-yl]phenyl}-3-azabicyclo[4.1.0]heptane-3-carboxamide], the “Agonist Activity (%)” value was determined as 126%. The value for `CC(C)c1ncc(C2(C)CCN(C(=O)Nc3c(Cl)cccc3N3CCN(C(C)C)CC3)CC2)o1` [Example 93, N-{2-chloro-6-[4-(propan-2-yl)piperazin-1-yl]phenyl}-4-methyl-4-[2-(propan-2-yl)-1,3-oxazol-5-yl]piperidine-1-carboxamide] was 203%; that for `Cc1ccc(C2CCN(C(=O)Nc3c(F)cccc3C3=CCN(C(C)C)C3)CC2)cc1` [Example 139, N-{2-fluoro-6-[1-(propan-2-yl)-2,5-dihydro-1H-pyrrol-3-yl]phenyl}-4-(4-methylphenyl)piperidine-1-carboxamide] was 121%.

The values are drawn from patent publication US20240308960A1 (Sumitomo Pharma Co., Ltd., priority 2021, published 2024).
